Consider one compound from patent publication US10738044B2, “Therapeutic compound and use in therapy” (PROXIMAGEN, LLC, priority 2015, dated 2020).

In experiment [1] the test system is male DBA/1J mice, collagen-induced arthritis. Nature of the experiment: Established mouse collagen-induced arthritis model. Format: in vivo. Here is the method: Example 1 was assessed in an established mouse collagen-induced arthritis model. Disease was induced in male DBA/1J mice by means of a subcutaneous injection of a collagen (bovine)/CFA emulsion at the base of the tail. Each paw was scored daily and the sum of all four scores was recorded as the Arthritic Index (AI). The maximum possible AI was 16 (0=no visible effects of arthritis, 1=edema and/or erythema of one digit, 2=edema and/or erythema of 2 joints, 3=edema and/or erythema of more than 2 joints, 4=severe arthritis of the entire paw and digits including limb deformation and ankylosis of the joint). As animals developed disease, they were sorted into treatment groups with AI in the range of 2-6 and an average group AI of 3.6 prior to initiation of the dosing regimen. Example 1 (10, 50 and 100 mg/kg) was administered orally twice daily from day 30 post-inoculation.
Histological evaluation of the rear right hind limbs was also carried out. The joints were scored for severity of arthritis (inflammation, pannus, cartilage damage and bone damage) by a board certified pathologist, who was blind to the assigned treatment.

Experiment [2] relates to DSS-treated mice, established colitis. As to the kind of experiment: Chronic DSS-induced colitis mouse model. The format is in vivo. Here is the method:
Example 1 was assessed in the treatment of established disease in the chronic Dextran Sulphate (DSS)-induced colitis model. DSS was administered in the drinking water as a 3% solution for five days. DSS-treated mice were orally administered vehicle, 6-Thioguanine (0.5 mg/kg) or Example 1 (10 mg/kg, 30 mg/kg or 100 mg/kg) b.i.d. from Days 6 to 19. A no treatment control group of 5 mice was also used. Body weights were measured daily for 19 days and animals were assessed visually for the presence of diarrhea and/or bloody stool. All animals underwent video endoscopy on Days 5 (baseline), 12 and 19 to assess the extent of colitis and whether any beneficial treatment effects could be observed. All animals were euthanized on Day 19 to obtain colon tissues for pathology examination.

In experiment [3] the test system is female SJL mice, experimental allergic encephalomyelitis. Nature of the experiment: Mouse PLP139-151 relapsing-remitting EAE model. Format: in vivo. Particulars: 3, 10, 30 or 100 mg/kg orally twice daily, therapeutic; FIG. 7. Here is the method:
Example 1 was assessed in a PLP139-151 remitting and relapsing model of experimental allergic encephalomyelitis (EAE) in female SJL mice as an indicator of a potential treatment for multiple sclerosis in humans.
Adjuvant was prepared by homogenizing 100 mg Mycobacterium tuberculosis H37 RA in 50 mL Incomplete Freund's Adjuvant to prepare a 2 mg/mL suspension which was stored at 4-8° C. 50 ug pertussis toxin from Bordetella pertussis was reconstituted in 50 mL sterile PBS to prepare a 1 ug/mL solution which was kept in an ice bath. 10.35 mg PLP139-151 was dissolved in 10.35 mL sterile PBS to prepare a 1 mg/mL solution. 10 mL of PLP139-151 was emulsified with 10 mL adjuvant in ten batches in an ice bath to prepare a 0.5 mg/mL PLP139-151/1 mg/mL M. tuberculosis H37 RA emulsion which was kept in an ice bath. […] On day 0, 70 mice were injected subcutaneously in both flanks with 0.1 mL of the PLP139-151/CFA emulsion. Two hours later the mice were injected by intraperitoneal route with 0.2 mL pertussis toxin (200 ng/mouse). The mice were returned to routine maintenance with no adverse effects. On day 2, the mice were injected IP with 0.2 mL of pertussis toxin (200 ng/mouse). From day 7 the mice were weighed and scored for signs of disease as follows: 0=no obvious signs of motor dysfunction compared to non-immunized control; 1=limp or floppy tail; 2=limp tail and weakness in hind legs; 3=limp tail and complete paralysis of legs or limp tail with paralysis of one front and one hind leg; 4=limp tail, complete hind leg and partial front leg paralysis; 5=complete hind and complete front leg paralysis. On days 10-12, the mice were sorted into treatment groups based upon average score and twice daily oral administration of Example 1 (3, 10, 30 or 100 mg/kg), dexamethasone or vehicle (n=10 per group) was initiated. The disease score was monitored for 20 days.

Experiment [4] relates to female C57BL/6 mice, CCl4-induced liver fibrosis. Nature of the experiment: Carbon tetrachloride induced liver fibrosis model. The note with it: 100 mg/kg bid orally for 28 days; FIG. 8. Format: in vivo, mouse. Here is the method: Example 1 was assessed in a carbon tetrachloride (CCl4)-induced Liver Fibrosis Model. 7 week old female C57BL/6 mice were divided into four groups (n=5/group for one Control group to act as non-disease comparator and n=10/group for three CCl4-treated groups based on their body weight the day before the start of the treatment. Thirty mice were intraperitoneally administered 5% CCl4 in mineral oil at a volume of 100 uL twice a week (days 0, 4, 11, 14, 18, 21 and 25). Five mice intraperitoneally administered mineral oil instead of the 5% CCl4, served as the non-diseased control group. Example 1 (100 mg/kg bid), Valsartan (20 mg/kg qd, positive control) and Vehicle were administered orally (dose volume=10 mL/kg) for 28 days (days −1 to 27). […] For quantitative analysis of fibrosis area, bright field images of Sirius red-stained section was blindly captured using a digital camera at 100-fold magnification, and the Sirius red-stained positive areas in 5 fields/4 um section/mouse were measured using ImageJ software (National Institute of Health, USA) and in accordance with the following expression: (collagen area/total area-vascular lumen area)×100. […] Results were expressed as mean±SD. Comparison of the Valsartan group and Vehicle group in fibrosis area was assessed with student's t-test to confirm whether Valsartan worked as a positive control.

For experiment [5], the system named is serum TNFα in female Swiss Webster mice. As to the kind of experiment: Murine model of LPS-induced cytokine release. The note with it: oral administration one hour prior to LPS challenge; serum one hour after LPS; FIG. 9. Format: in vivo, mouse. Here is the method: Example 1 was assessed in an LPS-induced cytokine release assay. One hour after administration of Example 1, female Swiss Webster mice (n=5 per group) were injected intraperitoneally with 2 mL/kg LPS (1.5 mg/mL). One hour after LPS injection the mice were anesthetized and exsanguinated into pre-chilled serum separator microtainer tubes. The blood was processed to serum which was stored at −80° C. The frozen serum aliquots were thawed to room temperature, diluted 1:5 with sterile saline and assayed by ELISA for TNFα.

Experiment [6] has as its system C57BL6 mice, laser-induced choroidal burns. As to the kind of experiment: Mouse choroidal neovascularisation model. Format: in vivo. The note with it: topical 5 uL instillations tid days 0 to 12; day 12; FIG. 10. Here is the method: Example 1 was assessed in a mouse choroidal neovascularisation model. Pigmented mice (C57BL6 strain, n=15 per group) each were induced with 3 choroidal burns in the right eyes using a 532 nm photocoagulator. Example 1 and vehicle were dosed topically using 5 uL instillations tid from days 0 to 12. On day 12, lesion size was determined by isolectine B4 immunostaining on flatmount choroids from the treated eyes and confocal microscopy for determining the size of the lesion.

For experiment [7], the system named is C57BL/10ScSn-Dmdx/J male mice. As to the kind of experiment: Murine model of Duchenne's muscular dystrophy (mdx mice). The note with it: 100 mg/kg po bid for 4 weeks; FIG. 11. The format is in vivo, mouse. Here is the method:
C57BL/10ScSn-Dmdx/J male mice were dosed from 27 days for 4 weeks with either vehicle (n=5), prednisolone (1 mg/kg ip qd, n=8) or Example 1 (100 mg/kg po bid, n=8). At 8 weeks of age, blood was collected by retro-orbital bleeding, and mice were humanely euthanized by CO2 asphyxiation. One triceps surae was collected fresh and processed for immune cell sorting, one tibialis anterior was preserved in RNALater for RNA extraction, one whole hind limb and the diaphragm were fixed in 2% paraformaldehyde overnight at 4° C. for paraffin embedding and histology stains. Serum was prepared immediately after collection and frozen at −20° C. At the end of the study, all serum samples were dosed for Creatine Kinase on a Beckman Coulter AU Clinical Chemistry analyzer following manufacturer instructions (a modification of the International Federation of Clinical Chemistry method).
For immune cell sorting, muscle samples were enzymatically and mechanically dissociated following manufacturer instructions (Skeletal Muscle Dissociation KitCatalog no. 130-098-305, Miltenyi Biotec). Cells were stained with the following antibodies:
Stained cells were analyzed on a BD LSR II cytometer and counts of different populations were expressed in percentage of the number of live cells counted. Total RNAs were extracted with a modification of the Trizol method, reverse transcribed, and mRNAs of TGFα, and the following inflammation markers were quantified by the SYBR green method with GAPDH as a normalizer: […]

[8] abbreviates: 100 mg/kg orally twice daily, rear right hind limbs, FIG. 2.

Regarding `CC(C)[C@H]1c2[nH]cnc2CCN1C(=O)OCc1ccc(OCCCN(C)C)cc1` [Example 1, {4-[3-(Dimethylamino)propoxy]phenyl}methyl (4S)-4-(propan-2-yl)-3H,4H,5H,6H,7H-imidazo[4,5-c]pyridine-5-carboxylate], the “reduction in disease severity (Arthritic Index)” value in experiment [1] (100 mg/kg orally twice daily, after two weeks of therapy, FIG. 1) came out at 46%. Also, in experiment [1] (setting [8]), the “inhibition of bone resorption (joint histology)” value came to 84%, the “inhibition of cartilage damage (joint histology)” value was found to be 60%, the “inhibition of inflammation (joint histology)” value was found to be 60% and the “inhibition of pannus formation (joint histology)” value came out at 84%. Moreover, in experiment [1] (10, 50 and 100 mg/kg orally twice daily from day 30 post-inoculation, FIG. 1), the “rate of disease development (Arthritic Index)” value was “dose-dependent decrease in the rate of disease development”. Besides, the “magnitude of the effect relative to positive control 6-Thioguanine (0.5 mg/kg)” value in experiment [2] (100 mg/kg orally b.i.d.) is given as “comparable to the effect seen with the positive control”. In experiment [2] (100 mg/kg orally b.i.d., FIG. 3), the overall body weight entry is given as “statistically significant effects”. Besides, the “endoscopy scores on day 12” value in experiment [2] (100 mg/kg orally b.i.d., FIG. 4) is on record as “statistically significant effects”. Also, the colon weight result in experiment [2] (100 mg/kg orally b.i.d., FIG. 5) is “statistically significant effects”. Also, in experiment [2] (100 mg/kg orally b.i.d., FIG. 6), the diarrhea result was “statistically significant effects”. In addition, the “overall effect in the DSS colitis model” value in experiment [2] (10, 30 or 100 mg/kg orally b.i.d., Days 6 to 19) is recorded as “dose-dependent improvement”. Moreover, in experiment [3], the “disease severity (EAE score)” value is on record as “decrease in disease severity”, the “time to disease relapse” value is reported as “increased time to disease relapse” and the “time to disease remission” value is “dose-dependent decrease in the time to disease remission”. In experiment [4], the “deposition of collagen in the liver (Sirius red staining)” value was “significantly reduced”. Moreover, in experiment [5], the “serum TNFα levels relative to vehicle control” value was “statistically significant dose-dependent decrease”. Also, the “lesion size versus vehicle” value in experiment [6] is given as “significant reduction”. Further, in experiment [7], the B cells entry is recorded as “significant reduction”, the T cells entry is reported as “significant reduction”, the TGFβ result is “significant reduction” and the cytokines result is recorded as “significant reduction”. Besides, in experiment [7], the macrophages result is reported as “significant reduction” and the pro-inflammatory monocytes result was “significant reduction”.
